{
  "source": "paper PMC6102129",
  "about": "“Epigallocatechin-3-gallate remodels apolipoprotein A-I amyloid fibrils into soluble oligomers in the presence of heparin” (The Journal of Biological Chemistry, 2018)",
  "target": "T1, monomeric apoA-I (Homo sapiens, UniProt P02647)",
  "T1 construct": "gene APOA1; mature apoA-I residues 3-243 from E. coli BL21(DE3), His tag removed by formic acid at Asp2-Pro3; soluble, lipid-free, monomeric, pH 7",
  "T1 sequence (P02647 27-267)": "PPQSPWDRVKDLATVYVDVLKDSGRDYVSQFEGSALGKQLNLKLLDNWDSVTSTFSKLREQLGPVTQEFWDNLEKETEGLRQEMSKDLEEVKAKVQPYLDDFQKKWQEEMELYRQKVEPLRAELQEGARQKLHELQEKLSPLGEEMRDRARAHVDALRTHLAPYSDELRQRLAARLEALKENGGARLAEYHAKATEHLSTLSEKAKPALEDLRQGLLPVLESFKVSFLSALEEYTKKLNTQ",
  "assay": "WaterLOGSY NMR",
  "type": "binding",
  "conditions": "36 μM apoA-I, phosphate buffer pH 7, no heparin",
  "data": [
    {"smiles": "O=C(O[C@@H]1Cc2c(O)cc(O)cc2O[C@@H]1c1cc(O)c(O)c(O)c1)c1cc(O)c(O)c(O)c1", "note": "[compound 5, EGCG]", "values": [
      {"measurement": "WaterLOGSY NMR", "value": "peaks from EGCG broaden and take the opposite sign to the TSP peak"}
    ]}
  ]
}
